Experimental findings from patent publication US20100190856A1, “Novel Polyhydroxylated Compounds as Fatty Acid Synthase (FASN) Inhibitors” (UNIVERSIDAD COMPLUTENSE DE MADRID, priority 2007, published 2010) are described below.

The subject of series [1] is SK-Br3 breast cancer cells. The series is described as follows: MTT cytotoxicity assay, SK-Br3 breast cancer cells. The format is cell-based, human. Conditions: MTT, 48 h, read-out: IC50, growth inhibition, SK-Br3. How it is done: (§1) MCF-7 and MDA-MB-231 breast cancer cells were obtained from the American Type Culture Collection (ATCC) and were routinely grown in Dulbecco's modified Eagle's medium (DMEM, Gibco) containing 10% fetal bovine serum (FBS, Bio-Whittaker), 1% L-glutamine, 1% sodium pyruvate, 50 U/mL penicillin and 50 μg/mL streptomycin. SK-Br3 breast cancer cells were obtained from Eucellbank (Universidad de Barcelona, Spain) and were passaged in McCoy's 5 A medium containing 10% FBS, 1% L-glutamine, 1% sodium pyruvate, 50 U/mL penicillin and 50 μg/mL streptomycin. Non-malignant fibroblasts N-1 were obtained from Eucellbank (Universidad de Barcelona, Spain) and were passaged in DMEM medium containing 10% FBS, 1% L-glutamine, 1% sodium pyruvate, 50 U/mL penicillin and 50 μg/mL streptomycin. The cells remained free of Mycoplasma and were propagated in adherent culture according to established protocols. Cells were maintained at 37° C. in a humidified atmosphere of 95% air and 5% CO2.
(§2) Drug sensitivity was determined using a standard colorimetric MTT (3-4,5-dimethylthiazol-2-yl-2,5-diphenyltetrazolium bromide) assay. Briefly, cells were plated out at a density of 7×10^3 cells/100 μL/well in 96-well microtitre plates and allowed an overnight period for attachment. Then the medium was removed and fresh medium along with various concentrations of the tested compound were added to the cultures for a period of 48 h. Following the treatment, the cells were fed with drug-free medium (100 μL/well) and 10 μL of MTT solution (5 mg/mL; Sigma, St. Louis, Mo.), and the incubation was prolonged for 3 h at 37° C. After carefully removing the supernatants, the MTT-formazan crystals formed by metabolically viable cells were dissolved in dimethyl sulphoxide (100 μL/well) and the absorbance was measured at 570 nm in a multi-well plate reader (Model Anthos Labtec 2010 1.7 reader).

The test system of series [2] is MCF-7 breast cancer cells. The series is described as follows: MTT cytotoxicity assay, MCF-7 breast cancer cells. The format is cell-based, human. Conditions: Homo sapiens, MCF7, MCF-7 cells, 48 h, read-out: IC50, growth inhibition, MCF-7. As to the method: as §1, §2
In general terms: Formazan colour is commonly taken as a measure of viable cells.

For series [3], the system named is MDA-MB-231 breast cancer cells. The series is described as follows: MTT cytotoxicity assay, MDA-MB-231 breast cancer cells. Conditions: Homo sapiens, MDA-MB-231 cells, 48 h, read-out: IC50, growth inhibition, MDA-MB-231. Format: cell-based, human. How it is done:
as §1, §2

For a further series, the target named is T1, FASN (Homo sapiens, UniProt P49327).
T1 construct: endogenous in cells; host or cells: SK-Br3 breast cancer cells
T1 sequence (P49327 whole entry): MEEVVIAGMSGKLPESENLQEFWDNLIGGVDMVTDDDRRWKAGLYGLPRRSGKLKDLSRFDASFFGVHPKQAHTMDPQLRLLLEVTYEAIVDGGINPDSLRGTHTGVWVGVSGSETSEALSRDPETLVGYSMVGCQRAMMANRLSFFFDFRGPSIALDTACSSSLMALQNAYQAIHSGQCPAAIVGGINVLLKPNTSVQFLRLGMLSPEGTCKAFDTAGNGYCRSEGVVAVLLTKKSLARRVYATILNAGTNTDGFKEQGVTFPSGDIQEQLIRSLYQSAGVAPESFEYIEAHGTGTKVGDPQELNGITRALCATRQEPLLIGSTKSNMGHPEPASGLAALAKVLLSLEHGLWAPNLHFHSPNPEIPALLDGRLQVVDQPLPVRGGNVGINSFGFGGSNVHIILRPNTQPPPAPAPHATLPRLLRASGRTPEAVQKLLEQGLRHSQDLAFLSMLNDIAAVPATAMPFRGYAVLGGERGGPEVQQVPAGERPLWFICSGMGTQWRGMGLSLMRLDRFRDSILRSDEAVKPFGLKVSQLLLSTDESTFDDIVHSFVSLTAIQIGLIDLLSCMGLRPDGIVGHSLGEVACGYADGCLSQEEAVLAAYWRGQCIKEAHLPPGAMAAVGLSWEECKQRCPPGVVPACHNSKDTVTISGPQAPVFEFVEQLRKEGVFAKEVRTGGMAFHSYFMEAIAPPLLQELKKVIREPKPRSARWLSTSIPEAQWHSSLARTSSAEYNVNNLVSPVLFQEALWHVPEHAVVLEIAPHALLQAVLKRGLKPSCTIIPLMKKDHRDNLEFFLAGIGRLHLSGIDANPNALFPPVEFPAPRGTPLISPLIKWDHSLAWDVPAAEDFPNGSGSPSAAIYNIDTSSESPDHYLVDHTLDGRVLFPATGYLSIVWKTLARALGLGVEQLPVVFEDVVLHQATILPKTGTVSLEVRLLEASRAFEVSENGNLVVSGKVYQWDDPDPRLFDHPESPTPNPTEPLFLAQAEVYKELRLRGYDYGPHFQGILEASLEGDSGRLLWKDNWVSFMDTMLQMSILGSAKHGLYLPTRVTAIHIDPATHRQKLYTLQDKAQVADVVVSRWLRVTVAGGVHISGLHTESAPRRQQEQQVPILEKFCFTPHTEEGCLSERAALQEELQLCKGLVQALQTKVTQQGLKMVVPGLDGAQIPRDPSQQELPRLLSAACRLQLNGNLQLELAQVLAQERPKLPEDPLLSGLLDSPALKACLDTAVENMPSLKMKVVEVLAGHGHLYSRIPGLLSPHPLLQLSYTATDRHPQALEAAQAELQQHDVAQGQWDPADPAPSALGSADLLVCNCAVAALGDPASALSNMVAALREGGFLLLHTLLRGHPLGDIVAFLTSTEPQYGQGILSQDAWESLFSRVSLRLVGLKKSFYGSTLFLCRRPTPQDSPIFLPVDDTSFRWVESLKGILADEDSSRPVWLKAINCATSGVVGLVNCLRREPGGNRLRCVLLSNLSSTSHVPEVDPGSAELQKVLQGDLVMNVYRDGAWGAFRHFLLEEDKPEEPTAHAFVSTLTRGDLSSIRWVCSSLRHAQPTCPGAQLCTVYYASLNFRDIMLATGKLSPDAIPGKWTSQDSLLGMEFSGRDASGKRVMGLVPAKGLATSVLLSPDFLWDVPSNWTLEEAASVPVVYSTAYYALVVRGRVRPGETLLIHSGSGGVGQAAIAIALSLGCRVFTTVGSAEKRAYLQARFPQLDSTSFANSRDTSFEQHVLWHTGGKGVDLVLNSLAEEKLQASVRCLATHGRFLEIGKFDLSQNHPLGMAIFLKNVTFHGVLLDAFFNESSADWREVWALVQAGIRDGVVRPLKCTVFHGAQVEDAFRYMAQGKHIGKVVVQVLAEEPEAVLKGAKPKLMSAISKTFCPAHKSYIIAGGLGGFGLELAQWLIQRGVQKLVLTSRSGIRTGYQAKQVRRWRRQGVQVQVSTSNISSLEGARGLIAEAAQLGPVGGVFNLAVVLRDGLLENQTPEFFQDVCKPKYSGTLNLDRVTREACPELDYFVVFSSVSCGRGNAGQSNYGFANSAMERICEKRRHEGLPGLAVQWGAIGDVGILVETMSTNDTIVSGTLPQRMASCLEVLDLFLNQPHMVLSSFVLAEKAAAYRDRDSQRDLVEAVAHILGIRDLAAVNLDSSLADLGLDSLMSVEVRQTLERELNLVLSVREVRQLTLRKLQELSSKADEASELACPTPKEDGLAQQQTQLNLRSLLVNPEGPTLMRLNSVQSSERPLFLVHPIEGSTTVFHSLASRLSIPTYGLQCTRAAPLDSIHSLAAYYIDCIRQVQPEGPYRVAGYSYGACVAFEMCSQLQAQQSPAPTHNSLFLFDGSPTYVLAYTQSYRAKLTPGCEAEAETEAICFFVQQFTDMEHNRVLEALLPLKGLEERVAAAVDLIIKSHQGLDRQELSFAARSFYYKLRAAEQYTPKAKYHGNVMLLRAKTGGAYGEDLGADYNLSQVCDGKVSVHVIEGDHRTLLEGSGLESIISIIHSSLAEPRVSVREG
Kind of series: Fatty acid synthase activity assay in SK-Br3 cells (NADPH oxidation, particle-free supernatants). Format: cell-based. On the set-up: FASN activity, % of control cells / FASN activity reduced to / reduction of FASN activity: concentration or dose not given beside the values. Conditions: for inhibition of FASN activity (in words): SK-Br3 cells treated 6, 12 and 24 hours; for FASN activity, % of control cells: SK-Br3 cells, 24 h exposure. As to the method:
FASN activity of compounds a, b, e, f, h, i, k, m and q was assayed in particle-free supernatants by recording spectrophotometrically at 37° C. (Lambda Bio 20, Perkin Elmer, EUA; using UV Kinlab 2.80.02 software) the decrease of A340nm due to the oxidation of NADPH, as we previously described. After 6, 12, 24 h of exposure to the tested compound, the cells were harvested by treatment with trypsin-EDTA solution, pelleted by centrifugation, washed twice and resuspended in cold PBS. The cells were sonicated during 30 min at 4° C. (PSelecta ultrasons) and centrifuged for 15 min at 4° C. to keep supernatants particle-free. A sample was taken to measure the protein content by a BioRad assay (Bio-Rad Laboratories). One-hundred and twenty micrograms of protein were pre-incubated during 15 min at 37° C. in 0.2 M of potassium phosphate buffer, pH 7.0, for temperature equilibration. The sample was then added to the reaction mixture: 200 mM potassium phosphate buffer, pH 7.0, 1 mM EDTA (Sigma), 1 mM dithiothreitol (Sigma), 30 μM acetyl-CoA (Sigma), 0.24 mM NADPH (Sigma), in 0.3 mL reaction volume were monitored at 340 nm for 3 min to measure the background NADPH oxidation. After the addition of 50 μM of malonyl-CoA (Sigma), the reaction was assayed for additional 10 min to determine FASN-dependent oxidation of NADPH. Rates were corrected for the background rate of NADPH oxidation in the presence of acetyl-CoA. FASN activity was expressed in nmol NADPH oxidized min^−1 mg protein^−1.

The target in a further series is T2, rat CPT-1 (Rattus norvegicus, UniProt Q63704).
T2 construct: made in house; host or cells: Pichia pastoris GS115 (isolated intact mitochondria)
T2 sequence (Q63704 1-772): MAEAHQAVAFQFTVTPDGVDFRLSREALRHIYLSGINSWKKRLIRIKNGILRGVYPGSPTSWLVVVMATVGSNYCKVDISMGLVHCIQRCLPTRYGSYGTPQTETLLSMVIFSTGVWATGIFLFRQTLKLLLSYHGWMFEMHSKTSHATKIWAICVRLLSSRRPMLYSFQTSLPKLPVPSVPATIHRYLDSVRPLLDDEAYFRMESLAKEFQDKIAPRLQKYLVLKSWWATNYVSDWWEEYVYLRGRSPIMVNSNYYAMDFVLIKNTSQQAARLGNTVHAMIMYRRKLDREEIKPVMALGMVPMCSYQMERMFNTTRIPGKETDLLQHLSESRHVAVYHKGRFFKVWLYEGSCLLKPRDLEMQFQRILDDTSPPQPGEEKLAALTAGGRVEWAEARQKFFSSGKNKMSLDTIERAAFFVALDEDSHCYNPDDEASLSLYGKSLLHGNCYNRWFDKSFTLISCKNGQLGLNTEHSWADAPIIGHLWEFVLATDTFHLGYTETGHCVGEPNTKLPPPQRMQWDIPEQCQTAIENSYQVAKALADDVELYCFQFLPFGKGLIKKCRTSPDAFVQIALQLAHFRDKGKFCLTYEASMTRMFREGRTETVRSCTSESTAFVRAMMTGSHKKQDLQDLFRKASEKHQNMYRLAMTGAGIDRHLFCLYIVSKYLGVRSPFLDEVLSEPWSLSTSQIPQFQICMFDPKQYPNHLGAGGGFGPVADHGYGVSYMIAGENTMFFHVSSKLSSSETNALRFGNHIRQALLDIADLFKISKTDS
The series is described as follows: Carnitine palmitoyltransferase 1 (CPT-1) assay, yeast mitochondria. The format is biochemical. On the set-up: % CPT-1 activity: concentration or dose not given beside the values. Conditions: for % CPT-1 activity: % of DMSO control, mitochondria of P. pastoris expressing rat CPT-1. An excerpt: The expression plasmid pRCPT-Iβ/pHW010 (provided by Gebre Woldegiorgis, Beaverton, Oreg. Published in Woldegiorgis G. et al. Biochem. Biophys. Res. Commun. 2004, 325, 660-4.) was linearized in the GAP gene promoter by digestion with AvrII and integrated into the GAPp locus of P. pastoris GS115 by electroporation. Histidine prototrophic transformants were selected on YND plates and grown on YND medium. Mitochondria were isolated by disrupting the yeast cells with glass beads as previously described.
CPT activity was assayed by the forward exchange method using L-[^3H] carnitine as previously described (Nicot, C. et al., Biochem. Biophys. Res. Comm. 2004, 325, 2745-7). In a total volume of 0.5 mL, the standard enzyme assay mixture contained 0.2 mM L-[^3H]carnitine (˜5000 dpm/nmol), 80 μM palmitoyl-CoA, 20 mM HEPES (pH 7.0), 1% fatty acid-free albumin, and 40-75 mM KCl, with or without malonyl-CoA as indicated. Reactions were initiated by addition of isolated intact yeast mitochondria. The reaction was linear up to 4 min, and all incubations were done at 30° C. for 3 min. Reactions were stopped by addition of 6% perchloric acid and were then centrifuged at 2000 rpm for 7 min. The resulting pellet was suspended in water, and the product [^3H]palmitoylcarnitine was extracted with butanol at low pH. After centrifugation at 2000 rpm for 2 min, an aliquot of the butanol phase was transferred to a vial for radioactive counting.

The nature of series [4]: Weight loss in vivo (data not shown).
Series [5] concerns Non-malignant fibroblasts N-1. Kind of series: MTT cytotoxicity assay, non-malignant fibroblasts N-1. Format: cell-based. How it is done:
as §1, §2

For orientation: IC50 means the concentration at which inhibition is half-maximal. Usually melting point stands for the temperature, or range, at which the solid turns liquid.

“Also recorded” adds a separate entry of the source. Read-outs that look alike come from different tables or passages of the source.

`O=C(Oc1ccccc1OC(=O)c1cc(O)c(O)c(O)c1)c1cc(O)c(O)c(O)c1` [a, 1,2-bis[(3,4,5-trihydroxybenzoyl)oxy]benzene] had a melting point of 210 °C. In addition, the IC50 in series [1] (Homo sapiens, SK-BR-3, 48 h) was found to be 126 ± 5.2 µM. For the same compound, in series [2], the IC50 is 165 ± 8.2 µM. Further, in series [3], the IC50 came out at 163 ± 5.2 µM.
`O=C(Oc1cccc(OC(=O)c2cc(O)c(O)c(O)c2)c1)c1cc(O)c(O)c(O)c1` [b, 1,3-bis[(3,4,5-trihydroxybenzoyl)oxy]benzene] registered a melting point of 194 to 195 °C. Also, the concentration for half-maximal inhibition (IC50) in series [1] (Homo sapiens, SK-BR-3, 48 h) was 42 ± 7.1 µM. Moreover, the IC50 in series [2] amounted to 162 ± 17.8 µM. In addition, in series [3], the IC50 was 173 ± 40.2 µM.
`O=C(Oc1cc2ccccc2cc1OC(=O)c1cc(O)c(O)c(O)c1)c1cc(O)c(O)c(O)c1` [e, 2,3-bis[(3,4,5-trihydroxybenzoyl)oxy]naphthalene] displayed a melting point of 182 to 183 °C. In addition, the IC50 in series [1] (Homo sapiens, SK-BR-3, 48 h) is 76.5 ± 9.2 µM. Also, the IC50 in series [2] worked out at 89 ± 28.7 µM. In series [3], the IC50 worked out at 136 ± 26.9 µM. Besides, at FASN, the “inhibition of FASN activity (in words)” value was “inhibit FASN activity; also recorded: decreased in a time-dependent manner” and the “FASN activity, % of control cells” value was determined as 69%. Besides, at rat CPT-1, the “stimulation of CPT-1 activity (in words)” value is reported as “did not stimulate CPT-1 activity” and the “% CPT-1 activity” value came out at 87.91 ± 7%. In series [4], the “weight loss in vivo” value is listed as “without inducing weight loss in vivo”.
`O=C(Oc1cc(OC(=O)c2cc(O)cc(O)c2)c2ccccc2c1)c1cc(O)cc(O)c1` [g, 1,3-bis[(3,5-dihydroxybenzoyl)oxy]naphthalene] had a melting point of 167 to 169 °C. In series [1] (Homo sapiens, SK-BR-3, 48 h), the IC50 amounted to 107 ± 29.7 µM. The IC50 in series [3] turned out to be 121 ± 5.7 µM.
The corresponding values for `O=C(Oc1ccc(OC(=O)c2cc(O)cc(O)c2)c2ccccc12)c1cc(O)cc(O)c1` [j, 1,4-bis[(3,5-dihydroxybenzoyl)oxy]naphthalene] are 201 to 203 °C, 115 ± 7.1 µM and 24 ± 0.9 µM.
The compound `O=C(Oc1ccc(OC(=O)c2cc(O)c(O)c(O)c2)c(-c2ccccc2)c1)c1cc(O)c(O)c(O)c1` [o, 2,5-bis[(3,4,5-trihydroxybenzoyl)oxy]-1,1′-biphenyl] returned a melting point of 114 to 116 °C. The concentration for half-maximal inhibition (IC50) in series [1] (Homo sapiens, SK-BR-3, 48 h) was 17.5 ± 2.6 µM. In series [2], the IC50 was 10 ± 2.8 µM. In addition, the IC50 in series [3] was determined as 40 ± 2.8 µM. Besides, on rat CPT-1, the “stimulation of CPT-1 activity (in words)” value is recorded as “did not” and the “% CPT-1 activity” value was determined as 86.80 ± 14%.
`O=C(Oc1ccc(OC(=O)c2ccccc2)c(-c2ccccc2)c1)c1cc(O)c(O)c(O)c1` [p, 6-(benzoyloxy)-1,1′-biphenyl-3-yl 3,4,5-trihydroxybenzoate] had a melting point of 82 to 84 °C. The IC50 in series [1] (Homo sapiens, SK-BR-3, 48 h) is 73.5 ± 4.9 µM. For the same compound, in series [3], the IC50 was greater than 150 µM.
In the case of `O=C(Oc1ccc(-c2ccc(OC(=O)c3cc(O)c(O)c(O)c3)cc2)cc1)c1cc(O)c(O)c(O)c1` [q, 4,4′-bis[(3,4,5-trihydroxybenzoyl)oxy]-1,1′-biphenyl], the IC50 in series [1] (Homo sapiens, SK-BR-3, 48 h) came out at 4 ± 1 µM; in series [1], 4.4 ± 1.4 µM; in series [2], 2.5 ± 0.1 µM; in series [3] it was 5.2 ± 3.5 µM; in series [5] (Fibroblast, non-malignant fibroblasts, MTT, 48 h, read-out: IC50, growth inhibition, Fibroblasts), 13 ± 4 µM. Besides, the “effect on non-malignant cells / normal fibroblasts” value in series [5] (at concentrations similar to IC50) is reported as “not affected”. Moreover, the “effects in cell death / morphology changes in non-malignant cells” value in series [5] (up to doses three-fold their cytotoxic IC50 value in tumoral cells) was “No significant effects”. The “inhibition of FASN activity (in words)” value against FASN is “inhibit FASN activity; also recorded: decreased in a time-dependent manner”. For the same compound, the “FASN activity, % of control cells” value on FASN was determined as 20%. Besides, the “reduction of FASN activity” value on FASN (after 24 h of cell exposure) came out at 50%. The “stimulation of CPT-1 activity (in words)” value on rat CPT-1 is given as “did not stimulate CPT-1 activity”. The “% CPT-1 activity” value at rat CPT-1 is 84.38 ± 4%. Also, the “weight loss in vivo” value in series [4] is “without inducing weight loss in vivo”.
Consider `COc1cc(C(=O)Oc2cc(OC(=O)c3cc(O)c(O)c(OC)c3)c3ccccc3c2)cc(O)c1O` [x, 1,3-bis[(3,4-dihydroxy-5-methoxybenzoyl)oxy]naphthalene], for which the melting point was 260 °C (dec.). Besides, the IC50 in series [1] (Homo sapiens, SK-BR-3, 48 h) came out at 3 µM.
